Data on 14 compounds can be found in ChEMBL document CHEMBL3044968, “N-palmitoylethanolamide derivatives: synthesis and studies on anticonvulsant and antidepressant activities” (Med Chem Res, 2011).

The subject of data set [1] is Mus musculus. As to the kind of experiment: Antidepressant activity in Mus musculus Kunming (mouse) assessed as reduction in duration of immobility at 10 mg/kg, ip measured after 30 min by forced swim test. The format is functional. Particulars: 0.5 h, route intraperitoneal.
For data set [2], the system named is Mus musculus. In words: Neurotoxicity in Mus musculus Kunming (mouse) at 30 mg/kg, ip measured after 4 hr by rotarod test. The settings on record: in vivo. The data set is classed as toxicity, organism-based. More on the design: dose 30 mg/kg, route intraperitoneal.
Data set [3] deals with Mus musculus. As to the kind of experiment: Anticonvulsant activity in Mus musculus Kunming (mouse) assessed as protection against maximal electroshock-induced seizure at 30 mg/kg, ip measured after 30 min. The format is functional, organism-based. More on the design: dose 30 mg/kg.
Data set [4] concerns Mus musculus. As to the kind of experiment: Neurotoxicity in Mus musculus Kunming (mouse) at 100 mg/kg, ip measured after 30 min by rotarod test. On the set-up: dose 100 mg/kg, route intraperitoneal. Particulars: in vivo, 0.5 h. The data set is classed as toxicity, organism-based.
Data set [5] relates to Mus musculus. In words: Neurotoxicity in Mus musculus Kunming (mouse) at 300 mg/kg, ip measured after 4 hr by rotarod test. The data set is classed as toxicity, organism-based. More on the design: dose 300 mg/kg, route intraperitoneal. The settings on record: in vivo.
The subject of data set [6] is Mus musculus. In words: Neurotoxicity in Mus musculus Kunming (mouse) at 30 mg/kg, ip measured after 30 min by rotarod test. More on the design: dose 30 mg/kg, route intraperitoneal. The data set is classed as toxicity, organism-based. Particulars: in vivo, 0.5 h.
Data set [7] concerns Mus musculus. As to the kind of experiment: Anticonvulsant activity in Mus musculus Kunming (mouse) assessed as protection against maximal electroshock-induced seizure at 300 mg/kg, ip measured after 30 min. The format is functional, organism-based. More on the design: dose 300 mg/kg.
For data set [8], the system named is Mus musculus. As to the kind of experiment: Anticonvulsant activity in Mus musculus Kunming (mouse) assessed as protection against maximal electroshock-induced seizure at 100 mg/kg, ip measured after 4 hr. The format is functional, organism-based. More on the design: dose 100 mg/kg.
Data set [9] relates to Mus musculus. In words: Neurotoxicity in Mus musculus Kunming (mouse) at 300 mg/kg, ip measured after 30 min by rotarod test. Particulars: in vivo, 0.5 h. The format is toxicity, organism-based. More on the design: dose 300 mg/kg, route intraperitoneal.
Data set [10] concerns Mus musculus. In words: Anticonvulsant activity in Mus musculus Kunming (mouse) assessed as protection against maximal electroshock-induced seizure at 30 mg/kg, ip measured after 4 hr. The data set is classed as functional, organism-based. More on the design: dose 30 mg/kg.
For data set [11], the system named is Mus musculus. As to the kind of experiment: Neurotoxicity in Mus musculus Kunming (mouse) at 100 mg/kg, ip measured after 4 hr by rotarod test. The format is toxicity, organism-based. More on the design: dose 100 mg/kg, route intraperitoneal. Particulars: in vivo.
Data set [12] relates to Mus musculus. In words: Anticonvulsant activity in Mus musculus Kunming (mouse) assessed as protection against maximal electroshock-induced seizure at 100 mg/kg, ip measured after 30 min. The format is functional, organism-based. On the set-up: dose 100 mg/kg.
For data set [13], the system named is Mus musculus. In words: Anticonvulsant activity in Mus musculus Kunming (mouse) assessed as protection against maximal electroshock-induced seizure at 300 mg/kg, ip measured after 4 hr. The format is functional, organism-based. On the set-up: dose 300 mg/kg.

The source made the active and inactive calls. The rule behind the calls is not given here.

With `CNCCC(Oc1ccc(C(F)(F)F)cc1)c1ccccc1` (stereo not given) [FLUOXETINE], in the data set on Mus musculus [1], the inhibition in vivo at 10 mg/kg is 39.4%.
Take `CN(CCO)C(=O)/C=C/c1ccccc1`: the Activity result in the data set with Mus musculus [2] was “Non-toxic”; with Mus musculus [4] it was “Non-toxic”; with Mus musculus [5], “Non-toxic”; with Mus musculus [6] it was “Non-toxic”; with Mus musculus [9], “Toxic”; with Mus musculus [11] it was “Non-toxic”. The outcome in the data set on Mus musculus [3], in the data set with Mus musculus [8] and in the data set with Mus musculus [10] was inactive. Moreover, the result in the data set on Mus musculus [7] was Active. The inhibition in vivo at 10 mg/kg in the data set with Mus musculus [1] was found to be 8.41%.
As to `CCCCCCCCCCCCCCCC(=O)NCCO` [PALMIDROL], the Activity result in the data set on Mus musculus [2], with Mus musculus [4], in the data set on Mus musculus [5], with Mus musculus [6], with Mus musculus [9] and in the data set with Mus musculus [11] was “Non-toxic” in each case. The outcome in the data set on Mus musculus [12] and in the data set with Mus musculus [7] was Active. The result in the data set with Mus musculus [8], with Mus musculus [13] and in the data set on Mus musculus [10] was inactive. The inhibition in vivo at 10 mg/kg with Mus musculus [1] was found to be 6.25%.
As for `CCCCCCCCCCCCCCCC(=O)N(CC)CC` [HEXADECANOIC ACID DIETHYLAMIDE], the Activity result with Mus musculus [2], in the data set on Mus musculus [4], in the data set with Mus musculus [5], with Mus musculus [6], in the data set with Mus musculus [9] and in the data set with Mus musculus [11] was “Non-toxic” throughout. Also, the result with Mus musculus [3], with Mus musculus [12], with Mus musculus [7], in the data set on Mus musculus [8], in the data set with Mus musculus [13] and in the data set on Mus musculus [10] was inactive. The inhibition in vivo at 10 mg/kg in the data set on Mus musculus [1] stood at 17.3%.
`CCCCCCCCCCCCCCCCCC(=O)NCCCO`: the Activity result in the data set on Mus musculus [2], with Mus musculus [4], in the data set on Mus musculus [5], with Mus musculus [6], with Mus musculus [9] and in the data set with Mus musculus [11] was “Non-toxic” in each case. In addition, the result with Mus musculus [3], in the data set on Mus musculus [12], in the data set with Mus musculus [7], in the data set with Mus musculus [8], in the data set with Mus musculus [13] and in the data set with Mus musculus [10] was inactive. Further, the inhibition in vivo at 10 mg/kg in the data set with Mus musculus [1] was 14.1%.
Regarding `CCCCCCCCCCCCCCCCCC(=O)N(CC)CC` [N,N-DIETHYLSTEARAMIDE], the Activity result in the data set with Mus musculus [2], with Mus musculus [4], in the data set with Mus musculus [5], in the data set with Mus musculus [6], in the data set on Mus musculus [9] and with Mus musculus [11] was “Non-toxic” each time. The outcome with Mus musculus [3], with Mus musculus [12], in the data set on Mus musculus [7], with Mus musculus [8], in the data set on Mus musculus [13] and in the data set on Mus musculus [10] was inactive. Moreover, the inhibition in vivo at 10 mg/kg in the data set on Mus musculus [1] is 18.4%.
As to `O=C(/C=C/c1ccccc1)NCCCO`, the Activity entry in the data set with Mus musculus [2] is given as “Non-toxic”; with Mus musculus [4], “Non-toxic”; in the data set with Mus musculus [5], “Non-toxic”; with Mus musculus [6] it was “Non-toxic”; in the data set on Mus musculus [9] it was “Toxic”; with Mus musculus [11], “Non-toxic”. Further, the result with Mus musculus [3], in the data set with Mus musculus [12], in the data set with Mus musculus [8], with Mus musculus [13] and in the data set on Mus musculus [10] was inactive. The inhibition in vivo at 10 mg/kg in the data set on Mus musculus [1] is 23.4%.
Regarding `CCCCCCCCCCCCCCCC(=O)NCCCO` [N-(3-HYDROXYPROPYL)PALMITAMIDE], the Activity result in the data set on Mus musculus [2], in the data set on Mus musculus [4], in the data set on Mus musculus [5], in the data set with Mus musculus [6], in the data set on Mus musculus [9] and with Mus musculus [11] was “Non-toxic” throughout. The result with Mus musculus [3], with Mus musculus [12], in the data set on Mus musculus [7], with Mus musculus [8], in the data set on Mus musculus [13] and in the data set on Mus musculus [10] was inactive. Moreover, the inhibition in vivo at 10 mg/kg in the data set with Mus musculus [1] worked out at 22.2%.
As for `CN(C)C(=O)/C=C/c1ccccc1` [N,N-DIMETHYLCINNAMAMIDE], the Activity entry in the data set with Mus musculus [2] is recorded as “Non-toxic”; with Mus musculus [4] it was “Non-toxic”; with Mus musculus [5], “Non-toxic”; in the data set with Mus musculus [6], “Non-toxic”; in the data set on Mus musculus [9], “Toxic”; in the data set with Mus musculus [11] it was “Non-toxic”. For the same compound, the result in the data set on Mus musculus [3] and with Mus musculus [10] was inactive. In the data set with Mus musculus [7], the outcome was Active. In addition, the inhibition in vivo at 10 mg/kg with Mus musculus [1] was 20%.
Turning to `CCN(CC)C(=O)/C=C/c1ccccc1` [N,N-DIETHYLCINNAMAMIDE], the Activity entry with Mus musculus [2] is on record as “Non-toxic”; in the data set with Mus musculus [4] it was “Non-toxic”; in the data set with Mus musculus [5] it was “Non-toxic”; with Mus musculus [6] it was “Non-toxic”; in the data set with Mus musculus [9] it was “Toxic”; with Mus musculus [11], “Non-toxic”. The outcome in the data set on Mus musculus [3] and in the data set on Mus musculus [10] was inactive. For the same compound, the outcome in the data set with Mus musculus [7] was Active. Also, in the data set on Mus musculus [1], the inhibition in vivo at 10 mg/kg was 18.2%.
Take `O=C(/C=C/c1ccccc1)NCCO` [IDROCILAMIDE]: the Activity entry was “Non-toxic” in the data set with Mus musculus [2]; “Non-toxic” in the data set on Mus musculus [4]; “Non-toxic” with Mus musculus [5]; “Non-toxic” in the data set with Mus musculus [6]; “Toxic” with Mus musculus [9]; “Non-toxic” with Mus musculus [11]. Further, the result in the data set on Mus musculus [3], with Mus musculus [12] and in the data set with Mus musculus [7] was Active. In addition, the outcome in the data set with Mus musculus [8], in the data set with Mus musculus [13] and with Mus musculus [10] was inactive. In addition, the inhibition in vivo at 10 mg/kg in the data set on Mus musculus [1] came out at 25.9%.
In the case of `CCCCCCCCCCCCCCCCCC(=O)N(C)CCO`, the Activity result with Mus musculus [2], in the data set on Mus musculus [4], with Mus musculus [5], in the data set on Mus musculus [6], in the data set with Mus musculus [9] and in the data set with Mus musculus [11] was “Non-toxic” throughout. Besides, the outcome in the data set with Mus musculus [3], in the data set with Mus musculus [12], in the data set on Mus musculus [7], in the data set with Mus musculus [8], in the data set on Mus musculus [13] and in the data set with Mus musculus [10] was inactive. Further, the inhibition in vivo at 10 mg/kg in the data set on Mus musculus [1] is 22%.
In the case of `CCCCCCCCCCCCCCCCCC(=O)NCCO` [N-(2-HYDROXYETHYL)STEARAMIDE], the Activity entry in the data set on Mus musculus [2], in the data set on Mus musculus [4], with Mus musculus [5], in the data set with Mus musculus [6], in the data set with Mus musculus [9] and with Mus musculus [11] was “Non-toxic” throughout. Besides, the outcome with Mus musculus [3], with Mus musculus [12] and with Mus musculus [7] was Active. Further, the outcome in the data set on Mus musculus [8], with Mus musculus [13] and with Mus musculus [10] was inactive. Also, the inhibition in vivo at 10 mg/kg with Mus musculus [1] is 5.65%.
Consider `CCCCCCCCCCCCCCCC(=O)N(CCO)CCO`, for which the Activity result in the data set with Mus musculus [2], in the data set on Mus musculus [4], in the data set with Mus musculus [5], in the data set on Mus musculus [6], in the data set on Mus musculus [9] and in the data set with Mus musculus [11] was “Non-toxic” throughout. Further, the outcome with Mus musculus [3], with Mus musculus [12], with Mus musculus [7], in the data set on Mus musculus [8], with Mus musculus [13] and in the data set on Mus musculus [10] was inactive. Further, the inhibition in vivo at 10 mg/kg with Mus musculus [1] was found to be 26.3%.
